Results from US3954780A, “Propionic acid derivatives” (Innothera, priority 1970, dated 1976).
In brackets after ≈: the same amount, converted by molar mass. Where a name gives a salt, the structure may show the parent alone. Read-outs that look alike come from different tables or passages of the source.

Key:
[1] = Acute toxicity in the mouse (DL50, method of Miller and Tainter); details: in vivo, read-out: DL 50 (the source's name)
Excerpt: The acute toxicity of the amine ester derivatives of β-[ benzo(b)thienyl-3]propionic acid have been studied in the mouse by intraperitoneal and oral routes, the products being administered in an isotonic solution of sodium chloride, 0.9%, or in suspension in a dilute aqueous solution of carboxymethyl cellulose.
The calculation of the DL50 has been effected according to the method of MILLER and TAINTER (MILLER. L.C., TAINTER M.L. - Proc. Soc. Exptl. Biol. Med. 1944-57-261,264).

[2] = tested on: isolated rat duodenum; experiment: Spasmolytic activity of papaverinic type, barium chloride contracture; details: Tyrode 38°; for EC50: read-out: Spasmolytic activity Papaverinic type DE 50 (converted)
Procedure: a. To show activity of the papaverinic type, the contracturant used is barium chloride acting on the isolated rat duodenum.
The average activity of the substances studied has been effected by determining graphically their DE 30 and DE 50 these being expressed in μg for 20 ml of bath.

[3] = tested on: isolated ileum of the guinea-pig; experiment: Spasmolytic activity of atropinic type, acetylcholine chloride contracture; details: Tyrode 33°; for EC50: Cavia porcellus, read-out: Spasmolytic activity Atropinic type DE 50 (converted)
Excerpt: b. To show activity of atropinic type the contracturant used is acetylcholine chloride acting on the isolated ileum of the guinea-pig. […]

[4] = tested on: acute oedema provoked by serotonine in the rat; experiment: Anti-serotonic activity, serotonine-induced acute paw oedema; type: in vivo; details: 30 minutes before serotonine
Procedure: This has been researched in the rat by the technique of the acute oedema localised in the metatarsal region, provoked by the injection of 0.05 ml of a 0.01% solution of serotonine (sulphate of 5-hydroxy-tryptamine-creatinine) in an isotonic solution of sodium chloride.
The plethysmometric measurements of the paw having been subjected to the injection have been effected before, and at different times after, the injection of the serotonine.
The derivatives to be studied have been administered by the oral route 30 minutes before the serotonine.

[5] = tested on: skin reflex; experiment: Local anaesthetic activity, conduction anaesthesia (method of Moukhtar); type: in vivo; details: for average number of stimulations for the derivative studied n: intradermal 0.20 ml
Excerpt: The method of MOUKHTAR has been chosen to show the activity of the derivatives studied on conduction anaesthesia (A. MOUKHTAR, C.R. Soc. Biol. 1909-66-187,189).
The reference local anaesthetic substance used in the tests has in each case been procaine hydrochloride in 0.5% solution in an 0.9% isotonic solution of NaCl. The three concentrations used to study the local anaesthetic activity of the new derivatives are 0.50, 0.25 and 0.10%, the vehicle being the isotonic 0.9% solution of NaCl.
The average anaesthetic activity of the substances chosen is expressed comparatively to that of the reference product chosen, by calculating the ratio of the average number n of the stimulations necessary to obtain the appearance of the skin reflex in the case of the derivatives studied, to the average number (n') of the stimulation determined for the reference substance.
The procaine hydrochloride and the derivatives studied are administered by the intradermal route at the rate of 0.20 ml per injection.

[6] = derivative 0.10 g/100 ml vs procaine hydrochloride 0.50 g/100 ml
[7] = derivative 0.25 g/100 ml vs procaine hydrochloride 0.50 g/100 ml
[8] = derivative 0.50 g/100 ml vs procaine hydrochloride 0.50 g/100 ml

SMILES | LD50 ([1]; ip) [mg/kg] | LD50 ([1]; v.o. (oral) route) [mg/kg] | Spasmolytic activity Papaverinic type DE 30 [2] | EC50 [2] [µg/mL] | EC50 [3] [µg/mL] | Spasmolytic activity Atropinic type DE 30 [3] | average percentage reduction in oedema after 1 hour ([4]; 50 mg/kg oral) [%] | average percentage reduction in oedema after 2 hours ([4]; 50 mg/kg oral) [%] | average number of stimulations for the derivative studied n ([5]; 0.10 g/100 ml) | average number of stimulations for the derivative studied n ([5]; 0.25 g/100 ml) | average number of stimulations for the derivative studied n ([5]; 0.50 g/100 ml) | local anaesthetic activity n/n' [5, 6] | local anaesthetic activity n/n' [5, 7] | local anaesthetic activity n/n' [5, 8] | average percentage reduction in oedema after 1 hour ([4]; 30 mg/kg oral) [%] | average percentage reduction in oedema after 2 hours ([4]; 30 mg/kg oral) [%]
C=CCC(Cc1csc2ccccc12)C(=O)OCCCN(CC)CC (stereo not drawn) [Compound 7, citrate of the N,N-diethylamino propyl esters of x-allyl-β-[benzo(b)thienyl-3]propionic acid] | 210 ± 10 | 1290 ± 80 | 2.2 μg for 20 ml of bath | 0.225 | 16.2 | 170 μg/20 ml of bath | 27.6 | 36.6 | 12.2 | 18.9 | 29.5 | 0.3 | 0.6 | 1.0 | – | –
CCN(CC)CCCOC(=O)C(Cc1csc2ccccc12)CC1CCCO1 (stereo not shown) [Compound 53] | 145 ± 9 | 1150 ± 78 | 4.5 μg for 20 ml of bath | 0.4 (≈ 0.991 µM) | 7 (≈ 17.3 µM) | 75 μg/20 ml of bath | 40.6 | 42.9 | 14.2 | 29.1 | 33.2 | 0.5 | 1.0 | 1.2 | 19.4 | 15.1
O=C(OCCCN1CCCC1)C(Cc1csc2ccccc12)CC1CCCO1 (stereo not shown) [Compound 54] | 100 ± 12 | 400 ± 27 | 9.5 μg for 20 ml of bath | 0.6 (≈ 1.49 µM) | 4.5 (≈ 11.2 µM) | 52 μg/20 ml of bath | 34.9 | 45.0 | 16.7 | 25.7 | 31.4 | 0.6 | 0.8 | 1.1 | 22.4 | 16.0
